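Step 1: Grow cells in 96-well plates. Step 2: Expose to compound for 48 hours at 5 concentrations. Step 3: Interpolate endpoints linearly; if unreached, use highest concentration. The concentration for 50% growth inhibition is given as GI50.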 Calls of active or inactive are those of the source. Cut-off read from the data, not from the text of the source: active = GI50 up to about 1.1 µM and inactive = higher.
Experiments:
Assay in all cases: NCI-60 cell line screen, 48 h
RPMI-8226 = system: RPMI-8226
SNB-19 = system: SNB-19
SN12C = system: SN12C
OVCAR-4 = system: OVCAR-4
TK-10 = system: TK-10
Malme-3M = system: Malme-3M
A549 = system: A549
HT-29 = system: HT-29
NCI-H23 = system: NCI-H23
UO-31 = system: UO-31
SF-295 = system: SF-295
M19-MEL = system: M19-MEL
UACC-62 = system: UACC-62
HL-60 = system: HL-60
HOP-92 = system: HOP-92
UACC-257 = system: UACC-257
NCI/ADR-RES = system: NCI/ADR-RES
MDA-MB-231 = system: MDA-MB-231
MDA-N = system: MDA-N
A498 = system: A498

SMILES	GI50 (RPMI-8226)	GI50 (SNB-19)	GI50 (SN12C)	GI50 (OVCAR-4)	GI50 (TK-10)	GI50 (Malme-3M)	GI50 (A549)	GI50 (HT-29)	GI50 (NCI-H23)	GI50 (UO-31)	GI50 (SF-295)	GI50 (M19-MEL)	GI50 (UACC-62)	GI50 (HL-60)	GI50 (HOP-92)	GI50 (UACC-257)	GI50 (NCI/ADR-RES)	GI50 (MDA-MB-231)	GI50 (MDA-N)	GI50 (A498)
C=CCNC(=S)N1c2ccccc2NC(=O)CC1C (stereo unspecified)	> 100 µM (inactive)	> 100 µM (inactive)	> 100 µM (inactive)	> 100 µM (inactive)	> 100 µM (inactive)	> 100 µM (inactive)	> 100 µM (inactive)	> 100 µM (inactive)	> 100 µM (inactive)	> 100 µM (inactive)	> 100 µM (inactive)	> 100 µM (inactive)	> 100 µM (inactive)	> 100 µM (inactive)						
N=C(N)N/N=C(/CCN1CCCC1)CC(c1ccccc1)c1c(O)c2ccccc2oc1=O (stereo unspecified)	> 100 µM (inactive)	> 100 µM (inactive)	> 100 µM (inactive)	> 100 µM (inactive)	> 100 µM (inactive)	> 100 µM (inactive)	> 100 µM (inactive)	> 100 µM (inactive)	> 100 µM (inactive)		> 100 µM (inactive)	> 100 µM (inactive)	> 100 µM (inactive)		16.7 µM (inactive)	> 100 µM (inactive)				
OC[C@@H]1CC#C/C=C\C#CC[C@@H]1CO	> 100 µM (inactive)	> 100 µM (inactive)		> 100 µM (inactive)	> 100 µM (inactive)	> 100 µM (inactive)		> 100 µM (inactive)	> 100 µM (inactive)	> 100 µM (inactive)	> 100 µM (inactive)	> 100 µM (inactive)		> 100 µM (inactive)	< 0.01 µM (active)					
c1ccc2c(c1)-c1ccccc1C2N1CC2CCC(CC2)C1	20.4 µM (inactive)	29.4 µM (inactive)	23.9 µM (inactive)	31.9 µM (inactive)	37.4 µM (inactive)	10.1 µM (inactive)	28.8 µM (inactive)	16.8 µM (inactive)	17.3 µM (inactive)	28.8 µM (inactive)	19.3 µM (inactive)		19.9 µM (inactive)	2.92 µM (inactive)	17.5 µM (inactive)	20.6 µM (inactive)	15.5 µM (inactive)	18.8 µM (inactive)	31.9 µM (inactive)	20.3 µM (inactive)
COC(=O)[C@]1(c2cc3ccccc3[nH]2)CC2CN(CC(=O)N(C)OC)C1C1OC(C)(C)OC21 (stereo partly specified)	23.2 µM (inactive)	92.9 µM (inactive)	55 µM (inactive)	36.9 µM (inactive)	56.6 µM (inactive)	> 100 µM (inactive)	33.3 µM (inactive)	61.9 µM (inactive)	45.8 µM (inactive)	37.5 µM (inactive)	36.1 µM (inactive)		61.7 µM (inactive)	27.2 µM (inactive)	47.8 µM (inactive)	32 µM (inactive)	41.6 µM (inactive)	31.6 µM (inactive)	49.5 µM (inactive)	24 µM (inactive)
O=C1CCCCC(=O)Nc2ccccc2N1	> 100 µM (inactive)	> 100 µM (inactive)	> 100 µM (inactive)	> 100 µM (inactive)	> 100 µM (inactive)	> 100 µM (inactive)	> 100 µM (inactive)	> 100 µM (inactive)	> 100 µM (inactive)	> 100 µM (inactive)	> 100 µM (inactive)		> 100 µM (inactive)	> 100 µM (inactive)	> 100 µM (inactive)	> 100 µM (inactive)	> 100 µM (inactive)	> 100 µM (inactive)	> 100 µM (inactive)	> 100 µM (inactive)
O=c1cccccc1NCCCCCCCNc1cccccc1=O	13.8 µM (inactive)	33.7 µM (inactive)	49.3 µM (inactive)	27 µM (inactive)		29.2 µM (inactive)	21.8 µM (inactive)	55.5 µM (inactive)	19.7 µM (inactive)	25.3 µM (inactive)	34 µM (inactive)	24 µM (inactive)	19.4 µM (inactive)	11.1 µM (inactive)	41.6 µM (inactive)	16.4 µM (inactive)				
Cc1ccc(C2(c3ccc(Cl)cc3)c3ccccc3C3=NCCN32)cc1 (stereo unspecified)	7.16 µM (inactive)	13.7 µM (inactive)	15.1 µM (inactive)	1.83 µM (inactive)	5.43 µM (inactive)	3.67 µM (inactive)	11.1 µM (inactive)	1.89 µM (inactive)	14.3 µM (inactive)	3.37 µM (inactive)	1.59 µM (inactive)		7.1 µM (inactive)	6.79 µM (inactive)	6.04 µM (inactive)	6.55 µM (inactive)	10 µM (inactive)	5.7 µM (inactive)	3.37 µM (inactive)	4.92 µM (inactive)

From ChEMBL document CHEMBL1201862, “PubChem BioAssay data set” (2004)
